Drawing on patent publication US20240391956A1, “STAPLED PEPTIDES AND METHODS THEREOF” (FOG PHARMACEUTICALS, INC., priority 2023, published 2024), this text covers Kd for three compounds.

This assay deals with T1, CHIP23-303 recombinant protein (Homo sapiens, UniProt Q9UNE7).
T1 construct: 6xHis (N, cleaved yes); TEV site (N, cleaved yes); made in house; host or cells: E. coli BL21 CodonPlus
T1 sequence (Q9UNE7 23-303): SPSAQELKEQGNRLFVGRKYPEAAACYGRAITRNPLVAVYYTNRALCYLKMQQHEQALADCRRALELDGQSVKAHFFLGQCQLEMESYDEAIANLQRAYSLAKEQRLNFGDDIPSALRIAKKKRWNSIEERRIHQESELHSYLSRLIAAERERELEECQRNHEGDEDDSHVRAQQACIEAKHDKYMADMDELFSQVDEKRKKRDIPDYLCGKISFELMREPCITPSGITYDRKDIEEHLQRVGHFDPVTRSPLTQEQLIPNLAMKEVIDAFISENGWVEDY
Kind of assay: Competition fluorescence polarization with CHIP23-303 and HSP70-derived probe 5FAM-bAla-[…]. The assay is classed as binding. As to conditions: competition FP, 400 nM CHIP23-303, 20 nM probe, 1 hour at room temperature; read-out: Measured KD. On the procedure: For the competition FP of CHIP, stapled peptides at 10 mM in DMSO were serially diluted 1:3 in DMSO for a total of 11 concentrations using a Mosquito LV (SPT Labtech), then diluted 1000-fold in buffer (1×HBS-P+, Cytiva) in duplicate by the Mosquito LV (SPT Labtech) into a black polystyrene 384-well plate (Corning) (11-point three-fold peptide dilution series with top concentration=10 μM). The assay was performed with 400 nM CHIP23-303 recombinant protein as target, and 20 nM BCHIP-binding peptide as probe (5FAM-bAla-[…] (SEQ ID NO: 18), derived from HSP70). The plate was incubated and protected from light for 1 hour at room temperature prior to reading. Reads were performed on a CLARIOstar plate reader (BMG Labtech) with excitation at 485 nm, emission at 525 nm, and cutoff at 504 nm. Data were fitted to a 1:1 binding model with Hill slope using an in-house script.
In some embodiments, CHP polypeptide was prepared as follows: CHIP (residues 23-303 for competition FP and 23-154 for crystallography) with an N-terminal 6×His-TEV tag was recombinantly expressed in E. coli BL21 CodonPlus cells (Agilent) from a pET21b-derived expression vector (Novagen) (“6×His” disclosed as SEQ ID NO: 13). The cells were induced at OD600=0.6 with 1 mM IPTG for 4 hours at 37° C., then harvested and resuspended in 50 mM Tris-HCl pH 8.0, 500 mM NaCl, 10 mM imidazole, 10% glycerol, and 10 mM ß-me. For purification, the pellet was lysed with a tip sonicator with power level set at 400 W, 3 seconds on and 3 seconds off for 20 min, pelleted at 22,000×g for 30 minutes at 4° C. The supernatant was purified with Ni-NTA resin (Qiagen), eluting with 250 mM imidazole. Eluted proteins were pooled, concentrated, and TEV-cleaved by adding TEV protease at a ratio of 1:10 protease to protein and incubated overnight at 4° C. TEV-cleaved proteins were loaded onto a Superdex™ 10/300 75 pg (Cytiva) SEC column, and eluted in 50 mM HEPES, pH 8.0, 150 mM NaCl, 10% glycerol, 2 mM DTT. Fractions containing pure protein were collected, pooled, concentrated to 30 mg/mL and stored at −80° C. […]
(In general: Polarisation of emitted light reports the rotation of a fluorescent probe.)

*1 amine or outer side, *2 acyl side, *3 side chain or, on linkers, in order; H or OH if unused. Where a SMILES comes first, the peptide text is derived from it. Bridges are numbered along the chain shown (N, C = ends). [ ]: non-standard residue; d: D form. Phenylene(1,4-NHCOCH2)2 = O=C(C[*:1])Nc1ccc(NC(=O)C[*:2])cc1

In the case of `CC[C@@H](C)[C@@H](NC(=O)[C@@H](CC(N)=O)NC(=O)[C@@H](Cc1ccc(O)cc1)NC(=O)[C@H]1CSCC(=O)Nc2ccc(cc2)NC(=O)CSC[C@@H](NC(=O)[C@@H](CC(=O)O)NC(=O)[C@@H](CCC(=O)O)NC(=O)[C@@H](Cc2c[nH]c3ccccc23)NC(=O)[C@H]2CCCN2C(C)=O)C(=O)N[C@H](C)C(=O)N[C@H](Cc2c[nH]c3ccccc23)C(=O)N[C@H](Cc2ccccc2)C(=O)N[C@H](C)C(=O)N[C@H](Cc2c[nH]c3ccccc23)C(=O)N[C@H](C)C(=O)N1)C(N)=O` [H201, Ac-pwedcawfawacyni-NH2] (Ac-[dP][dW][dE][dD][dC][dA][dW][dF][dA][dW][dA][dC][dY][dN][dI]-NH2; linker 5-12 via Phenylene(1,4-NHCOCH2)2), the Kd was 470 nM. In the case of `CSCC[C@@H](NC(=O)[C@@H](CCC(=O)O)NC(=O)[C@@H](Cc1c[nH]cn1)NC(=O)[C@H]1CCCN1C(C)=O)C(=O)N[C@@H]1CSCC(=O)Nc2ccc(cc2)NC(=O)CSC[C@H](C(=O)N[C@H](CCCNC(=N)N)C(=O)N[C@H](Cc2ccc(O)cc2)C(=O)N[C@H](CO)C(N)=O)NC(=O)[C@@H](Cc2ccc(O)cc2)NC(=O)[C@@H](C)NC(=O)[C@@H](CC(=O)O)NC(=O)[C@@H](C)NC(=O)[C@@H](Cc2c[nH]c3ccccc23)NC(=O)[C@@H](Cc2ccc(O)cc2)NC1=O` [H203, Ac-phemcywadaycrys-NH2] (Ac-[dP][dH][dE][dM][dC][dY][dW][dA][dD][dA][dY][dC][dR][dY][dS]-NH2; linker 5-12 via Phenylene(1,4-NHCOCH2)2), the Kd turned out to be 550 nM. Take `CC[C@@H](C)[C@@H](NC(=O)[C@H]1CSCC(=O)Nc2ccc(cc2)NC(=O)CSC[C@@H](NC(=O)[C@@H](CC(C)C)NC(=O)[C@@H](CC(=O)O)NC(=O)[C@@H](CC(C)C)NC(=O)[C@H]2CCCN2C(C)=O)C(=O)N[C@H](Cc2ccc(O)cc2)C(=O)N[C@H](Cc2c[nH]c3ccccc23)C(=O)N[C@H](C)C(=O)N[C@H](CO)C(=O)N[C@H](CC(C)C)C(=O)N[C@H](Cc2c[nH]cn2)C(=O)N1)C(=O)N[C@@H](C(=O)N[C@H](CO)C(N)=O)C(C)C` [H204, Ac-pldlcywaslhcivs-NH2] (Ac-[dP][dL][dD][dL][dC][dY][dW][dA][dS][dL][dH][dC][dI][dV][dS]-NH2; linker 5-12 via Phenylene(1,4-NHCOCH2)2): the Kd was determined as 770 nM.

What is called Kd is the constant that tells how readily two partners part at equilibrium.
